For orientation: IC50 means the concentration that gives 50% inhibition. Low readings indicate greater potency in that assay, high ones weaker potency in that assay.

The structures appear in SMILES notation. *1 amine or outer side, *2 acyl side, *3 side chain or, on linkers, in order; H or OH if unused. Where a SMILES comes first, the peptide text is derived from it. Bridges are numbered along the chain shown (N, C = ends). [ ]: non-standard residue; d: D form. Azetidine3carboxylic = O=C(C1CN([*:1])C1)[*:2]; 2Nal = N[C@@H](Cc1ccc2ccccc2c1)C(=O)O; d2Nal = N[C@H](Cc1ccc2ccccc2c1)C(=O)O; NMeCha = CN[C@@H](CC1CCCCC1)C(=O)O; NMeR = CN[C@@H](CCCNC(=N)N)C(=O)O; hArg = N=C(N)NCCCC[C@H](N)C(=O)O; NMeQ = CN[C@@H](CCC(N)=O)C(=O)O; Cha = N[C@@H](CC1CCCCC1)C(=O)O; dCha = N[C@H](CC1CCCCC1)C(=O)O; S5 = C=CCCC[C@](C)(N)C(=O)O

The test relates to Colo320DM. Kind of test: Colo320DM cell viability. The class given is cell-based, human. An excerpt:
In some embodiments, a polypeptide described herein inhibits binding of BLC9 to β-catenin when assessed in a cell-viability assay. In some embodiments, the cell-viability assay is a CellTiterGlo luminescent assay, wherein the viability of cells is quantitatively measured. Various cell lines, transformed cell lines or primary cells derived from a healthy subject or subject suffering from a disease can be used in this assay.
Consider `CC[C@H](C)[C@@H]1NC(=O)[C@@](C)(NC(=O)[C@H](CCCNC(=N)N)NC(=O)[C@H](CC(C)C)NC(=O)[C@@H](NC(=O)[C@H](CCC(N)=O)NC(=O)[C@H](CC(C)C)NC(=O)[C@H](CO)NC(=O)[C@H](CCCNC(=N)N)NC(=O)[C@H](CCC(N)=O)NC(=O)[C@H](CCCNC(=N)N)NC(=O)[C@H](Cc2c[nH]cn2)NC(C)=O)[C@@H](C)O)CCCC=CCCC[C@@](C)(C(=O)N2CC(C(=O)N[C@@H](Cc3ccc4ccccc4c3)C(N)=O)C2)NC(=O)[C@H](CCCNC(=N)N)NC(=O)[C@H](CCC(N)=O)NC1=O` [SEQ ID NO: 178, HRQRSLQTLRXIQRX(Aze)(2-Nal)] (Ac-HRQRSLQTLR[S5]IQR[S5][Azetidine3carboxylic][2Nal]-NH2; staple 11-15), for which the IC50 was above 5000 nM.

`CC[C@H](C)[C@@H]1NC(=O)[C@@](C)(NC(=O)[C@H](CCCNC(=N)N)NC(=O)[C@H](CC(C)C)NC(=O)[C@@H](NC(=O)[C@H](CCC(N)=O)NC(=O)[C@H](CC(C)C)NC(=O)[C@H](CO)NC(=O)[C@H](CCCNC(=N)N)NC(=O)[C@H](CCC(N)=O)NC(=O)[C@H](CCCCNC(=N)N)NC(=O)[C@H](Cc2c[nH]cn2)NC(C)=O)[C@@H](C)O)CCCC=CCCC[C@@](C)(C(=O)N[C@@H](CC2CCCCC2)C(=O)N[C@@H](Cc2ccc3ccccc3c2)C(N)=O)NC(=O)[C@H](CCCNC(=N)N)NC(=O)[C@H](CCC(N)=O)NC1=O` [SEQ ID NO: 183, H(homoArg)QRSLQTLRXIQRX(Cha)(2-Nal)] (Ac-H[hArg]QRSLQTLR[S5]IQR[S5][Cha][2Nal]-NH2; staple 11-15) had an IC50 of 2530 nM. To `CC[C@H](C)[C@@H]1NC(=O)[C@@](C)(NC(=O)[C@H](CCCNC(=N)N)NC(=O)[C@H](CC(C)C)NC(=O)[C@@H](NC(=O)[C@H](CCC(N)=O)NC(=O)[C@H](CC(C)C)NC(=O)[C@H](CO)NC(=O)[C@H](CCCNC(=N)N)N(C)C(=O)[C@H](CCC(N)=O)NC(=O)[C@H](CCCNC(=N)N)NC(=O)[C@H](Cc2c[nH]cn2)NC(C)=O)[C@@H](C)O)CCCC=CCCC[C@@](C)(C(=O)N[C@@H](CC2CCCCC2)C(=O)N[C@@H](Cc2ccc3ccccc3c2)C(N)=O)NC(=O)[C@H](CCCNC(=N)N)NC(=O)[C@H](CCC(N)=O)NC1=O` [SEQ ID NO: 184, HRQ(N-MeArg)SLQTLRXIQRX(Cha)(2-Nal)] (Ac-HRQ[NMeR]SLQTLR[S5]IQR[S5][Cha][2Nal]-NH2; staple 11-15) belongs 2430 nM.

Consider `CC[C@H](C)[C@@H]1NC(=O)[C@@](C)(NC(=O)[C@H](CCCNC(=N)N)NC(=O)[C@H](CC(C)C)NC(=O)[C@@H](NC(=O)[C@H](CCC(N)=O)N(C)C(=O)[C@H](CC2CCCCC2)NC(=O)[C@H](CO)NC(=O)[C@H](CCCNC(=N)N)NC(=O)[C@H](CCC(N)=O)NC(=O)[C@H](CCCNC(=N)N)NC(=O)[C@H](Cc2c[nH]cn2)NC(C)=O)[C@@H](C)O)CCCC=CCCC[C@@](C)(C(=O)N[C@@H](CC2CCCCC2)C(=O)N[C@@H](Cc2ccc3ccccc3c2)C(N)=O)NC(=O)[C@H](CCCNC(=N)N)NC(=O)[C@H](CCC(N)=O)NC1=O` [SEQ ID NO: 185, HRQRS(Cha)(N-MeGln)TLRXIQRX(Cha)(2-Nal)] (Ac-HRQRS[Cha][NMeQ]TLR[S5]IQR[S5][Cha][2Nal]-NH2; staple 11-15), for which the IC50 came out at 1900 nM. To `CC[C@H](C)[C@@H]1NC(=O)[C@@](C)(NC(=O)[C@H](CCCNC(=N)N)NC(=O)[C@H](CC(C)C)NC(=O)[C@@H](NC(=O)[C@H](CCC(N)=O)N(C)C(=O)[C@H](CC2CCCCC2)N(C)C(=O)[C@H](CO)NC(=O)[C@H](CCCNC(=N)N)NC(=O)[C@H](CCC(N)=O)NC(=O)[C@H](CCCNC(=N)N)NC(=O)[C@H](Cc2c[nH]cn2)NC(C)=O)[C@@H](C)O)CCCC=CCCC[C@@](C)(C(=O)N[C@@H](CC2CCCCC2)C(=O)N[C@@H](Cc2ccc3ccccc3c2)C(N)=O)NC(=O)[C@H](CCCNC(=N)N)NC(=O)[C@H](CCC(N)=O)NC1=O` [SEQ ID NO: 186, HRQRS(N-MeCha)(N-MeGln)TLRXIQRX(Cha)(2-Nal)] (Ac-HRQRS[NMeCha][NMeQ]TLR[S5]IQR[S5][Cha][2Nal]-NH2; staple 11-15) belongs 2230 nM. To `CC[C@H](C)[C@@H]1NC(=O)[C@@](C)(NC(=O)[C@H](CCCNC(=N)N)NC(=O)[C@H](CC(C)C)NC(=O)[C@@H](NC(=O)[C@H](CCC(N)=O)N(C)C(=O)[C@@H](CC2CCCCC2)NC(=O)[C@H](CO)NC(=O)[C@H](CCCNC(=N)N)NC(=O)[C@H](CCC(N)=O)NC(=O)[C@H](CCCNC(=N)N)NC(=O)[C@H](Cc2c[nH]cn2)NC(C)=O)[C@@H](C)O)CCCC=CCCC[C@@](C)(C(=O)N[C@@H](CC2CCCCC2)C(=O)N[C@@H](Cc2ccc3ccccc3c2)C(N)=O)NC(=O)[C@H](CCCNC(=N)N)NC(=O)[C@H](CCC(N)=O)NC1=O` [SEQ ID NO: 187, HRQRSD(Cha)(N-MeGln)TLRXIQRX(Cha)(2-Nal)] (Ac-HRQRS[dCha][NMeQ]TLR[S5]IQR[S5][Cha][2Nal]-NH2; staple 11-15; N-terminus and C-terminus assumed) belongs 2180 nM; to `CC[C@H](C)[C@@H]1NC(=O)[C@@](C)(NC(=O)[C@H](CCCNC(=N)N)NC(=O)[C@H](CC(C)C)NC(=O)[C@@H](NC(=O)[C@H](CCC(N)=O)NC(=O)[C@H](CC(C)C)NC(=O)[C@H](CO)NC(=O)[C@H](CCCNC(=N)N)NC(=O)[C@H](CCC(N)=O)NC(=O)[C@H](CCCNC(=N)N)NC(=O)[C@H](Cc2c[nH]cn2)NC(C)=O)[C@@H](C)O)CCCC=CCCC[C@@](C)(C(=O)N[C@@H](CC2CCCCC2)C(=O)N[C@H](Cc2ccc3ccccc3c2)C(N)=O)NC(=O)[C@H](CCCNC(=N)N)NC(=O)[C@H](CCC(N)=O)NC1=O` [SEQ ID NO: 188, HRQRSLQTLRXIQRX(Cha)(2DNal)] (Ac-HRQRSLQTLR[S5]IQR[S5][Cha][d2Nal]-NH2; staple 11-15), 3280 nM; to `CC[C@H](C)[C@@H]1NC(=O)[C@@](C)(NC(=O)[C@H](CCCNC(=N)N)N(C)C(=O)[C@H](CC(C)C)NC(=O)[C@@H](NC(=O)[C@H](CCC(N)=O)NC(=O)[C@H](CC(C)C)NC(=O)[C@H](CO)NC(=O)[C@H](CCCNC(=N)N)NC(=O)[C@H](CCC(N)=O)NC(=O)[C@H](CCCNC(=N)N)NC(=O)[C@H](Cc2c[nH]cn2)NC(C)=O)[C@@H](C)O)CCCC=CCCC[C@@](C)(C(=O)N[C@@H](CC2CCCCC2)C(=O)N[C@@H](Cc2ccc3ccccc3c2)C(N)=O)NC(=O)[C@H](CCCNC(=N)N)NC(=O)[C@H](CCC(N)=O)NC1=O` [SEQ ID NO: 189, HRQRSLQTL(N-MeArg)XIQRX(Cha)(2-Nal)] (Ac-HRQRSLQTL[NMeR][S5]IQR[S5][Cha][2Nal]-NH2; staple 11-15), 3250 nM. Take `CC[C@H](C)[C@@H]1NC(=O)[C@@](C)(NC(=O)[C@H](CCCNC(=N)N)NC(=O)[C@H](CC(C)C)NC(=O)[C@@H](NC(=O)[C@H](CCC(N)=O)NC(=O)[C@H](CC(C)C)NC(=O)[C@H](CO)NC(=O)[C@H](CCCNC(=N)N)NC(=O)[C@H](CCC(N)=O)NC(=O)[C@H](CCCNC(=N)N)NC(=O)[C@H](Cc2c[nH]cn2)NC(C)=O)[C@@H](C)O)CCCC=CCCC[C@@](C)(C(=O)N[C@@H](CC2CCCCC2)C(=O)N[C@@H](Cc2ccc3ccccc3c2)C(N)=O)NC(=O)[C@H](CCCNC(=N)N)N(C)C(=O)[C@H](CCC(N)=O)NC1=O` [SEQ ID NO: 190, HRQRSLQTLRXIQ(N-MeArg)X(Cha)(2-Nal)] (Ac-HRQRSLQTLR[S5]IQ[NMeR][S5][Cha][2Nal]-NH2; staple 11-15): the IC50 is 5890 nM.

Values taken from patent US11591365B2, “BCL9 peptides and variants thereof” (WntRx Pharmaceuticals Inc., priority 2017, dated 2023).
